Holding throughout (assay): relative viability (nuclei count vs DMSO), 5 days (fraction); higher = more cells survive
Compound in test [1]: COc1cc([C@@H]2c3cc4c(cc3[C@@H](O[C@@H]3O[C@@H]5CO[C@@H](C)O[C@H]5[C@H](O)[C@H]3O)[C@H]3COC(=O)[C@H]23)OCO4)cc(OC)c1O [Etoposide] + O=C(c1cc(Cc2n[nH]c(=O)c3ccccc23)ccc1F)N1CCN(C(=O)C2CC2)CC1 [Olaparib] (partner 8 µM)
Summed up:
(§1)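 Values are medians from duplicate plates. Each reflects relative viability, defined as the nuclei count of treated wells over that of vehicle wells. Lung cancer cell lines in 1536-well plates were pin-tool dosed one day after seeding with one drug alone or with a fixed anchor-drug dose plus five library-drug doses (not always all listed) in √10 steps, then fixed, stained and imaged at 4× after 5 days.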

Compound in test [2]: CC1=C(N=C(N=C1N)[C@H](CC(=O)N)NC[C@@H](C(=O)N)N)C(=O)N[C@@H]([C@H](C2=CN=CN2)OC3C(C(C(C(O3)CO)O)O)OC4C(C(C(C(O4)CO)O)OC(=O)N)O)C(=O)N[C@H](C)[C@H]([C@H](C)C(=O)N[C@@H]([C@@H](C)O)C(=O)NCCC5=NC(=CS5)C6=NC(=CS6)C(=O)NCCC[S+](C)C)O [Bleomycin] + COc1cc2c(Oc3ccc(NC(=O)C4(C(=O)Nc5ccc(F)cc5)CC4)cc3F)ccnc2cc1OCCCN1CCOCC1 [Foretinib] (partner 0.25 µM)
As to conditions: main component drawn. Put shortly:
as §1

Compound in test [3]: COc1cc([C@@H]2c3cc4c(cc3[C@@H](O[C@@H]3O[C@@H]5CO[C@@H](C)O[C@H]5[C@H](O)[C@H]3O)[C@H]3COC(=O)[C@H]23)OCO4)cc(OC)c1O [Etoposide] + Cc1cc(Nc2cc(N3CCN(C)CC3)nc(Sc3ccc(NC(=O)C4CC4)cc3)n2)n[nH]1 [Tozasertib] (partner 0.1 µM)
Put shortly: as §1

Compound in test [4]: CC1=C(N=C(N=C1N)[C@H](CC(=O)N)NC[C@@H](C(=O)N)N)C(=O)N[C@@H]([C@H](C2=CN=CN2)OC3C(C(C(C(O3)CO)O)O)OC4C(C(C(C(O4)CO)O)OC(=O)N)O)C(=O)N[C@H](C)[C@H]([C@H](C)C(=O)N[C@@H]([C@@H](C)O)C(=O)NCCC5=NC(=CS5)C6=NC(=CS6)C(=O)NCCC[S+](C)C)O [Bleomycin] + CS(=O)(=O)N1CCN(Cc2cc3nc(-c4cccc5[nH]ncc45)nc(N4CCOCC4)c3s2)CC1 [Pictilisib] (partner 1 µM)
As to conditions: main component drawn. Put shortly: as §1

Consider eight cell lines from the supplement of paper PMC10307832.

For NCI-H2342, the relative viability in test [1] (first compound 0.01 µM) was 0.474; in test [1] (first compound 0.03162 µM) it was 0.398; in test [1] (first compound 0.1 µM), 0.267; in test [1] (first compound 0.3162 µM) it was 0.208; in test [1] (first compound 1 µM), 0.211; in test [2] (first compound 0.01 µM), 0.874. Moreover, the relative viability in test [2] (first compound 0.03162 µM) was found to be 0.996; in test [2] (first compound 0.1 µM), 1.03; in test [2] (first compound 0.3162 µM), 0.698; in test [2] (first compound 1 µM), 0.918; in test [3] (first compound 0.01 µM), 0.528; in test [3] (first compound 0.03162 µM) it was 0.512. The relative viability came out at 0.379 in test [3] (first compound 0.1 µM), 0.315 in test [3] (first compound 0.3162 µM) and 0.272 in test [3] (first compound 1 µM).

Turning to SK-MES-1, the relative viability in test [1] (first compound 0.01 µM) was found to be 0.697; in test [1] (first compound 0.03162 µM), 0.785; in test [1] (first compound 0.1 µM) it was 0.56; in test [1] (first compound 0.3162 µM) it was 0.257; in test [1] (first compound 1 µM), 0.19; in test [4] (first compound 0.01 µM), 0.432. Moreover, the relative viability turned out to be 0.274 in test [4] (first compound 0.03162 µM); 0.307 in test [4] (first compound 0.1 µM); 0.201 in test [4] (first compound 0.3162 µM); 0.116 in test [4] (first compound 1 µM); 0.907 in test [2] (first compound 0.01 µM); 0.846 in test [2] (first compound 0.03162 µM). Further, the relative viability was determined as 0.765 in test [2] (first compound 0.1 µM); 0.357 in test [2] (first compound 0.3162 µM); 0.237 in test [2] (first compound 1 µM); 0.877 in test [3] (first compound 0.01 µM); 0.807 in test [3] (first compound 0.03162 µM); 0.833 in test [3] (first compound 0.1 µM). Besides, the values for the relative viability in test [3] (first compound 0.3162 µM) and in test [3] (first compound 1 µM) were 0.389 and 0.222, respectively.

As for NCI-H2087, the relative viability in test [1] (first compound 0.01 µM) turned out to be 0.579; in test [1] (first compound 0.03162 µM), 0.564; in test [1] (first compound 0.1 µM) it was 0.489; in test [1] (first compound 0.3162 µM), 0.319; in test [1] (first compound 1 µM), 0.161; in test [4] (first compound 0.01 µM), 0.766. In addition, the relative viability in test [4] (first compound 0.03162 µM) came out at 0.874; in test [4] (first compound 0.1 µM), 0.775; in test [4] (first compound 0.3162 µM), 0.236; in test [4] (first compound 1 µM), 0.247; in test [2] (first compound 0.03162 µM), 0.827; in test [2] (first compound 0.1 µM), 0.872. For the same cell line, the relative viability in test [2] (first compound 0.3162 µM) amounted to 0.205; in test [2] (first compound 1 µM), 0.158; in test [3] (first compound 0.01 µM), 0.214; in test [3] (first compound 0.03162 µM), 0.248; in test [3] (first compound 0.1 µM), 0.233; in test [3] (first compound 0.3162 µM), 0.205. The relative viability in test [3] (first compound 1 µM) came out at 0.166.

Take HCC-366: the relative viability in test [1] (first compound 0.01 µM) is 0.292; in test [1] (first compound 0.03162 µM), 0.304; in test [1] (first compound 0.1 µM), 0.217; in test [1] (first compound 0.3162 µM) it was 0.0515; in test [1] (first compound 1 µM), 0.0449; in test [4] (first compound 0.01 µM), 0.133. Moreover, the relative viability was found to be 0.128 in test [4] (first compound 0.03162 µM); 0.09 in test [4] (first compound 0.1 µM); 0.0658 in test [4] (first compound 0.3162 µM); 0.0477 in test [4] (first compound 1 µM); 0.872 in test [2] (first compound 0.01 µM); 0.702 in test [2] (first compound 0.03162 µM). Also, the relative viability amounted to 0.337 in test [2] (first compound 0.1 µM); 0.0868 in test [2] (first compound 0.3162 µM); 0.0636 in test [2] (first compound 1 µM); 0.0819 in test [3] (first compound 0.01 µM); 0.087 in test [3] (first compound 0.03162 µM); 0.0918 in test [3] (first compound 0.1 µM). Moreover, the relative viability in test [3] (first compound 0.3162 µM) came out at 0.0736; in test [3] (first compound 1 µM), 0.0452.

Regarding 201T, the relative viability in test [1] (first compound 0.01 µM) is 0.818; in test [1] (first compound 0.03162 µM), 0.804; in test [1] (first compound 0.1 µM) it was 0.771; in test [1] (first compound 0.3162 µM), 0.633; in test [1] (first compound 1 µM), 0.384; in test [4] (first compound 0.01 µM), 0.686. In addition, the relative viability in test [4] (first compound 0.03162 µM) stood at 0.59; in test [4] (first compound 0.1 µM), 0.622; in test [4] (first compound 0.3162 µM), 0.634; in test [4] (first compound 1 µM), 0.512; in test [2] (first compound 0.01 µM) it was 0.902; in test [2] (first compound 0.03162 µM) it was 0.928. Further, the relative viability was 0.825 in test [2] (first compound 0.1 µM); 0.548 in test [2] (first compound 0.3162 µM); 0.336 in test [2] (first compound 1 µM); 0.824 in test [3] (first compound 0.01 µM); 0.995 in test [3] (first compound 0.03162 µM); 0.886 in test [3] (first compound 0.1 µM). Besides, the relative viability in test [3] (first compound 0.3162 µM) was determined as 0.709; in test [3] (first compound 1 µM), 0.465.

Regarding HCC-827, the relative viability in test [1] (first compound 0.01 µM) was 0.685; in test [1] (first compound 0.03162 µM), 0.623; in test [1] (first compound 0.1 µM) it was 0.43; in test [1] (first compound 0.3162 µM) it was 0.16; in test [1] (first compound 1 µM), 0.164; in test [4] (first compound 0.01 µM), 0.921. In addition, the relative viability was found to be 0.787 in test [4] (first compound 0.03162 µM); 0.916 in test [4] (first compound 0.1 µM); 0.512 in test [4] (first compound 0.3162 µM); 0.399 in test [4] (first compound 1 µM); 0.955 in test [2] (first compound 0.01 µM); 1.22 in test [2] (first compound 0.03162 µM). Further, the relative viability in test [2] (first compound 0.1 µM) was found to be 0.913; in test [2] (first compound 0.3162 µM), 0.558; in test [2] (first compound 1 µM), 0.266; in test [3] (first compound 0.01 µM), 0.388; in test [3] (first compound 0.03162 µM), 0.453; in test [3] (first compound 0.1 µM), 0.433. Also, the values for the relative viability in test [3] (first compound 0.3162 µM) and in test [3] (first compound 1 µM) were 0.192 and 0.173, respectively.

In the case of NCI-H1703, the relative viability in test [1] (first compound 0.01 µM) came to 0.366; in test [1] (first compound 0.03162 µM) it was 0.465; in test [1] (first compound 0.1 µM), 0.424; in test [1] (first compound 0.3162 µM), 0.246; in test [1] (first compound 1 µM), 0.179; in test [4] (first compound 0.01 µM) it was 0.226. Also, the relative viability in test [4] (first compound 0.03162 µM) came out at 0.236; in test [4] (first compound 0.1 µM), 0.26; in test [4] (first compound 0.3162 µM), 0.219; in test [4] (first compound 1 µM), 0.176; in test [2] (first compound 0.01 µM), 0.298; in test [2] (first compound 0.03162 µM) it was 0.325. Besides, the relative viability in test [2] (first compound 0.1 µM) is 0.306; in test [2] (first compound 0.3162 µM), 0.283; in test [2] (first compound 1 µM), 0.275.

Take NCI-H1792: the relative viability in test [1] (first compound 0.01 µM) turned out to be 0.348; in test [1] (first compound 0.03162 µM), 0.248; in test [1] (first compound 0.3162 µM) it was 0.212; in test [1] (first compound 1 µM) it was 0.152; in test [4] (first compound 0.01 µM), 0.301; in test [4] (first compound 0.03162 µM), 0.231. Further, the relative viability in test [4] (first compound 0.1 µM) came out at 0.217; in test [4] (first compound 0.3162 µM), 0.102; in test [4] (first compound 1 µM), 0.122.
